Data set [1] deals with C3H/htau cells. Put plainly: tau expression in C3H/htau cells treated 72 hours, samples run on a gel. In kind it is cell-based. Conditions: for monomeric and high molecular weight (HMW) tau multimers: 72 hours. Here is the method:
(§1) FIG. 3A, FIG. 3B, FIG. 3C, FIG. 3D. C3H/htau cells treated with siRNA to GPRC6A show decreased tau expression compared to scrambled siRNA (FIG. 3A). GPRC6a allosteric antagonist Cpd#3 (Drug 47661) (0-250 tLM) decreases monomeric and high molecular weight (HMW) tau multimers (FIG. 3B) in C3H/htau cells. FIG. 3C-FIG. 3D show decreased tau in primary neurons after (Drug 47661) decreases tau at 10-100 nM. All treatments=72 hours (n=3 independent exp.).
FIG. 6. C3H/htau cells treated with GPRC6A antagonist show decreased tau expression compared to vehicle (dotted line and first lane in each well). All GPRC6a allosteric antagonists Drug 47661 (red), PF020 (blue), PF037 (black) (0-100 μM) decreased monomeric and high molecular weight (HMW) tau multimers in C3H/htau cells at different concentrations. All treatments=72 hours (n=3 independent exp.).
rTg4510 tau mice comprise of the tau P301L mutation which expresses in the forebrain and hippocampus (K. Santacruz, et al. Science 2005, 309, 476). […] Accumulation of ptau occurs largely between 3 and 9 mo of age. Additionally, high-molecular weight tau multimers/oligomers and nitrated tau also accumulate in rTg4510 tau transgenic mice compared to non-transgenic littermates (J. B. Hunt, Jr., et al. J. Neurosci. 2015, 35, 14842). […] In stably tau overexpressing HeLa cells (C3H/htau), siRNA to GPRC6a reduced receptor expression coupled with a reduction in tau […]. We will repress GPRC6a expression in the CNS with rAAV-shRNA-GPRC6a to reduce receptor signaling.
(§2) Some of the compounds have 9-fold more selectivity for GPRC6a than our current compound in a FRET-based assay (H. Johansson, et al. J. Med. Chem. 2015, 58, 8938), and an excess of 50 derivatives to these current lead compounds will be analyzed. A tetracycline inducible “on” tau fusion-Dendra2 stable cell line will be used, which is a green-to-red irreversible photoswitchable fluorescent protein activated by UV-violet/blue light. We will induce tau expression with tetracycline (1 μg/mL) for 24 h, then photo convert tau dendra2-green with blue light (488 nm) for 10 minutes to tau-dendra2-red for monitoring kinetics of tau. […] We will treat cells with GPRC6a allosteric antagonists for 72 hours with continual red fluorescent output readings every 6 hours (553 nm ex and 573 nm em). This assay will measure tau degradation kinetics over time (time 0 point at which photo switch occurs from tau-green to tau-red) (FIG. 5). Agents that govern tau biology will alter the rate of tau degradation (tau-red). Newly synthesize tau (tau-green) will fluoresce green to be measure on a separated channel. We will also co-label cells with DAPI nuclear stain to account for cell loss and nuclear chromatin changes. We will use Biotek®@ Cytation™ 3 Cell Imaging Multi-Mode Reader located at Byrd Institute. We will use a 96 well semi-high throughput platform with GPRC6a antagonist concentrations ranging from (10 nM-100 μM). We will also perform cell toxicity assays (Cyto Tox-ONE LDH Membrane Integrity Assay, Promega). We will perform western blot analysis in C3H/htau cells from GPRC6a antagonists that reduce tau levels more than 30% at 3 μM or below and with no more than 5-10% toxicity. We will measure autophagy related makers to determine the mechanism for tau reduction.
C3H/htau cells were treated for 72 hours with varying concentrations of GPRC6A antagonist Drug 47661, PF020, or PF037. Samples were run on a gel. […]

Data set [2] in a line: half-life of Drug 47661 in naive mice after IV injection. The data set is classed as in vivo, mouse. Here is the method:
FIG. 9. Graphs show relative half-life of Drug 47661. Naïve mice were injected with 5 mg/kg of Drug 47661 IV. Serial submandibular bleeds were taken 15 min and 60 min post IV injection. […] (N=3).
The half-life of GPRC6A antagonist Drug 47661 was examined. Naïve mice were injected with 5 mg/kg of Drug 47661 by IV. Serial submandibular bleeds were taken 15 min and 60 min post IV injection. […] (N=3). Shown in FIG. 9 is a graph showing the relative half-life of Drug 47661.

Data set [3] has as its system primary neurons. Put plainly: tau in primary neurons after 72 hours treatment. In kind it is cell-based. Conditions: 10-100 nM, endogenous tau, nanomolar efficacy. Here is the method: as §1
Some of the compounds have 9-fold more selectivity for GPRC6a than our current compound in a FRET-based assay (H. Johansson, et al. J. Med. Chem. 2015, 58, 8938), and an excess of 50 derivatives to these current lead compounds will be analyzed. A tetracycline inducible “on” tau fusion-Dendra2 stable cell line will be used, which is a green-to-red irreversible photoswitchable fluorescent protein activated by UV-violet/blue light. We will induce tau expression with tetracycline (1 μg/mL) for 24 h, then photo convert tau dendra2-green with blue light (488 nm) for 10 minutes to tau-dendra2-red for monitoring kinetics of tau. […] We will treat cells with GPRC6a allosteric antagonists for 72 hours with continual red fluorescent output readings every 6 hours (553 nm ex and 573 nm em). […] We will use Biotek®@ Cytation™ 3 Cell Imaging Multi-Mode Reader located at Byrd Institute. […]

Data set [4] relates to PS 19 tau (P301S) transgenic mice. Put plainly: acute bolus injection into PS19 tau (P301S) transgenic mice, western blot after 72 hours. In kind it is in vivo, mouse. Here is the method: FIG. 4. GPRC6a allosteric antagonist impacts tau levels and modifies autophagy markers in PS 19 tau transgenic mice. PSI9 (P301S) mice (bottom left of panel) show tau AT8 accumulation received an acute bolus injection of vehicle on one hemisphere and the antagonist (Drug 47661, 78 ng) on the opposite hemisphere for 72 hours.
as §2
For orientation: A western blot detects proteins with antibodies after separation by electrophoresis.

Data set [5] concerns BE(2) M17 cells. Put plainly: alpha synuclein expression in BE(2) M17 cells stably transfected with wild-type alpha synuclein. In kind it is cell-based. Conditions: 72 hours, relative to GAPDH. Here is the method:
FIG. 10. Shown are BE(2) M17 cells stably transfected with wild-type alpha synuclein (16 kDa) treated with GPRC6a antagonist drug 47661 for 72 hours. […] Statistical analysis was performed using One-way Anova with Fisher's LSD multiple comparison test as post hoc. (n=3 independent experiments).
BE(2) M17 cells were stably transfected with wild-type alpha synuclein (16 kDa) and treated with GPRC6a antagonist drug 47661 for 72 hours. Samples were run on a gel. […] Statistical analysis was performed using One-way Anova with Fisher's LSD multiple comparison test as post hoc.

[6] abbreviates: 78 ng bolus injection, western blot.

Entries after “also recorded” stand apart in the source; their conditions may differ.

Regarding `O=C(CN1CCCC(C(=O)N2CCOCC2)C1)c1c(-c2ccccc2)[nH]c2ccccc12` (stereo not drawn) [PF020, 2-(3-(morpholine-4-carbonyl)piperidin-1-yl)-1-(2-phenyl-1H-indol-3-yl)ethan-1-one], in data set [1] (0-100 μM, vs vehicle, FIG. 6), the “monomeric and high molecular weight (HMW) tau multimers” value (“monomeric and high molecular weight” below) is “decreased”.
For `CN(CCN1CCOCC1)CC(=O)c1c(-c2ccccc2)[nH]c2ccccc12` [PF037], in data set [1] (0-100 μM, vs vehicle, FIG. 6), the “monomeric and high molecular weight” value is reported as “decreased”.
As a reminder, the half-life is how long it takes for the measured level to halve. Low readings indicate fast loss, high ones slow loss. As usually defined, the clearance is the rate of elimination divided by the concentration. In data set [2] (5 mg/kg IV (FIG. 9 legend)), `CN(CC(=O)c1c(-c2ccccc2)[nH]c2ccccc12)CC(=O)N1CCOCC1` [Drug 47661, 2-(methyl(2-morpholino-2-oxoethyl)amino)-1-(2-phenyl-1H-indol-3-yl)ethan-1-one] registered a clearance rate of 4.5 Lh/kg. This compound also gave a half-life in data set [2] (mouse, blood, 5 mg/kg IV) of 9.6 min. In addition, the clearance in data set [2] (mouse, blood, 5 mg/kg IV, read-out: clearance rate (converted)) is 75 mL/min/kg. Further, the Vd in data set [2] (mouse, blood, 5 mg/kg IV, read-out: volume of distribution) is 1.07 L/kg. In addition, the “tau in primary neurons” value in data set [3] is given as “reduced; also recorded: decreased tau”. Also, in data set [4] (setting [6]), the “beclin 1” value is given as “increased”, the mTOR entry was “decreased” and the p62 result is on record as “decreased”. In addition, in data set [4] (78 ng one-time bolus injection, entorhinal cortex, vs vehicle hemisphere), the “tau expression (total tau)” value is reported as “modestly reduced”. Besides, in data set [1] (0-100 μM, vs vehicle, FIG. 6), the “monomeric and high molecular weight” value is “decreased”. For the same compound, the “monomeric and high molecular weight” value in data set [1] (0-250 tLM, FIG. 3B) was “decreases”. Moreover, the “clearance among monomeric, insoluble, and oligomeric tau” value in data set [1] (micromolar efficacy) is reported as “significant clearance”. In data set [5], the “monomeric (16 kDa) and oligomeric (>75 kDa) alpha synuclein expression” value is on record as “decreased”.
